For test [1], the target named is T1, Glucocorticoid receptor (Homo sapiens, UniProt P04150).
T1 sequence (P04150 whole entry): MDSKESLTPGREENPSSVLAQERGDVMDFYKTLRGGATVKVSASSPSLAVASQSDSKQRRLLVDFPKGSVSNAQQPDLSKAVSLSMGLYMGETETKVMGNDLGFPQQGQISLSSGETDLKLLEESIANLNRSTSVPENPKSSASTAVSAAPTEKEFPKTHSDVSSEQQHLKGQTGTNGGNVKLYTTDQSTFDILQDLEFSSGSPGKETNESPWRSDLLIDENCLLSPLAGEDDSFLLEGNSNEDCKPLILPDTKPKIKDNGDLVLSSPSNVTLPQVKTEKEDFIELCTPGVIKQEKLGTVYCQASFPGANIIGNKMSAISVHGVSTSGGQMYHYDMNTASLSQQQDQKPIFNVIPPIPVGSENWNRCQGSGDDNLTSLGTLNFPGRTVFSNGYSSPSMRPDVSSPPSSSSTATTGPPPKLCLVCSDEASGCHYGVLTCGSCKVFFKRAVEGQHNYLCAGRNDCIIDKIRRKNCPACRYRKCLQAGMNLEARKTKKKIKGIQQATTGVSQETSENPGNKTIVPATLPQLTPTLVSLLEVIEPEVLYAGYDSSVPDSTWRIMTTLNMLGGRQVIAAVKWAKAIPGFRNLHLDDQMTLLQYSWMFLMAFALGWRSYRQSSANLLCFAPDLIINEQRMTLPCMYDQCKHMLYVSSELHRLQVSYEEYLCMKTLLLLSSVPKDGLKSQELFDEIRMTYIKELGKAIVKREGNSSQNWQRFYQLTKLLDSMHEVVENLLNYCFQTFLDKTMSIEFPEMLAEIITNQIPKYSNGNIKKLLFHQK
Briefly: (§1) Inhibition of [3H]dexamethasone binding to human Glucocorticoid Receptor.

The target in test [2] is T1, Glucocorticoid receptor. Described as §1. The source holds these as a separate data set.

Usually IC50 stands for the point on the concentration scale where inhibition reaches its midpoint. A high value points to a need for much substance. On to `CC1(C)O[C@@H]2CC3C4C[C@H](F)C5=CC(=O)C=C[C@]5(C)[C@@]4(F)[C@@H](O)C[C@]3(C)[C@]2(C(=O)CSC(CCO)C(=O)O)O1` (some centres not stated), for which the results for the IC50 at Glucocorticoid receptor [1] and at Glucocorticoid receptor [2] were 827 nM and 194 nM, respectively.
